Results reported in patent US8841299B2, “Substituted pyrrolo[1,2-a]pyrazines as tankyrase inhibitors” (Hoffman-La Roche Inc., priority 2012, dated 2014).

Tests used:
[1] = biological target: T1, tankyrase 2 (TNKS2) (Homo sapiens, UniProt Q9H2K2); assay: μHTS-TNKS-IWR2 TR-FRET binding assay, TNKS2 in place of TNKS1; settings: His6-TNKS2 (construct 934-1166), Biotin-IWR2 60 nM
T1 construct: His6-tankyrase 2 (construct: 934-1166) (His6-TNKS2)
Description: (§1) μHTS-TNKS-IWR2 TR-FRET Binding Assay
(§2) (10 μL/well in BD1536-well plate, a single point)
(§3) Tankyrase 1 (TNKS1): 184.3 μM=5.2 mg/mL His6-TNKS1, MW=28.2 KDa (construct: 1088-1327, I266M) in 20 mM Tris pH 8, 150 mM NaCl, 10% glycerol, and 0.5 mM TCEP Alternatively, in place of His6-TNKS1 can use either His6-tankyrase 2 (construct: 934-1166) (His6-TNKS2) or His6-PARP1 (full length).
(§4) Biotin-IWR2: 10 mM Biotin-IWR2 stock in DMSO, stored at −20° C.
Positive control: 10 mM XAV 939 in DMSO, stored at −20° C.
(§5) Eu-Streptavidin: 38.1 μM (2.1 mg/mL) Eu-SA (Bio #Eu-2212, Lot #N 18001-BDHO2)
(§6) APC-anti-His Ab: 8.50 μM SL-APC, 8.26 μM anti-6His antibody-SureLight APC (Columia Bioscience, Cat #D3-1711, Lot #N01010-AAH04)
(§7) Assay plate: BD 1536-well, clear/black plate (Cat #353255)
(§8) Assay buffer 1a (AB1a) for TNKS dilution: 50 mM Tris, pH 7.4, 100 mM sodium chloride solution, 1 mM magnesium chloride solution, 1 mM DL-dithiothreitol solution, 0.2 mg/mL bovine serum albumin solution, 0.025% NP-40.
(§9) Assay buffer 1b (AB1b) for Biotin-IWR2 dilution: 50 mM Tris, pH 7.4, 100 mM sodium chloride solution, 1 mM magnesium chloride solution, 1 mM DL-dithiothreitol solution, 0.2 mg/mL bovine serum albumin solution, 0.05% NP-40
(§10) Assay buffer 1c (AB1c) for compound dilution: 50 mM Tris, pH 7.4, 100 mM sodium chloride solution, 1 mM magnesium chloride solution, 1 mM DL-dithiothreitol solution, 0.2 mg/mL bovine serum albumin solution
(§11) Assay buffer 2 (AB2) for Eu/APC: 50 mM Tris, pH 7.4, 100 mM sodium chloride solution, 1 mM magnesium chloride solution, 0.2 mg/mL bovine serum albumin solution
(§12) Prepare Biotinylated IWR2 stock solution (3.33× stock) for TOTL and cpd wells: 200 nM Biotin-IWR2 in 5% DMSO/AB1b buffer
(§13) Prepare BLANK well stock solution: 5% DMSO/AB1b buffer
(§14) Prepare POSITIVE CONTROL well stock solution (3.33× stock): 200 nM XAV939 in 200 nM Biotin-IWR2/5% DMSO/AB1b buffer
(§15) Prepare TNKS1 stock solution (5× stock): 300 nM TNKS in AB1a buffer
(§16) (Alternatively, use TNKS2 or PARP1 stock solutions.)
(§17) Prepare Eu/APC stock solution (5× stock): 3.5 nM Eu-SA/50 nM APC-His6Ab in AB2 buffer
(§18) Add 25 μL/well 1.5% DMSO/AB1c buffer in each compound well to the compound concentration at 74 μM in 8.8% DMSO/AB1c buffer or in the 2 μL DMSO CONTROL wells (BLANK, TOTAL and POSITIVE wells) in the compound plate.
(§19) Transfer 3 μL/well of above solution (solution 1, 2, 3) to an empty assay plate (BD1536-well plate) as follows:
(§20) TOTAL and cpd wells: Solution 1 (Biotin-IWR2):
(§21) BLANK wells: Solution 2 (No Biotin-IWR2):
(§22) POSITIVE CONTROL wells: Solution 3 (Biotin-IWR2+XAV939)
(§23) Transfer 3 μL/well of the above diluted compound solutions or compound dilution buffer to the above assay plate.
(§24) Add 2 μL/well of 300 nM TNKS stock solution (4) to every well in the above assay plate
(§25) Centrifuge the assay plate at 2100 rpm for 2 minutes.
(§26) Incubate the assay plate at 26° C. for 30 minutes.
(§27) Add 2 μL/well 3.5 nMEu/50 nM APC solution (5) to every well in the above assay plate.
(§28) Incubate the assay plate at 26° C. for 60 minutes.
(§29) Read the assay plate immediately at excitation wavelength of 330 nm and emission wavelength of […] in time resolved fluorescence mode.
XAV939 (+ve control): 60 nM at ˜70% Inhibition
(§30) General Library compounds: 22.23 μM in 4% DMSO

[2] = biological target: T2, PARP1 (Homo sapiens, UniProt P09874); assay: μHTS-TNKS-IWR2 TR-FRET binding assay, PARP1 in place of TNKS1; settings: His6-PARP1 (full length), Biotin-IWR2 60 nM
T2 construct: or His6-PARP1 (full length)
T2 sequence (P09874 whole entry): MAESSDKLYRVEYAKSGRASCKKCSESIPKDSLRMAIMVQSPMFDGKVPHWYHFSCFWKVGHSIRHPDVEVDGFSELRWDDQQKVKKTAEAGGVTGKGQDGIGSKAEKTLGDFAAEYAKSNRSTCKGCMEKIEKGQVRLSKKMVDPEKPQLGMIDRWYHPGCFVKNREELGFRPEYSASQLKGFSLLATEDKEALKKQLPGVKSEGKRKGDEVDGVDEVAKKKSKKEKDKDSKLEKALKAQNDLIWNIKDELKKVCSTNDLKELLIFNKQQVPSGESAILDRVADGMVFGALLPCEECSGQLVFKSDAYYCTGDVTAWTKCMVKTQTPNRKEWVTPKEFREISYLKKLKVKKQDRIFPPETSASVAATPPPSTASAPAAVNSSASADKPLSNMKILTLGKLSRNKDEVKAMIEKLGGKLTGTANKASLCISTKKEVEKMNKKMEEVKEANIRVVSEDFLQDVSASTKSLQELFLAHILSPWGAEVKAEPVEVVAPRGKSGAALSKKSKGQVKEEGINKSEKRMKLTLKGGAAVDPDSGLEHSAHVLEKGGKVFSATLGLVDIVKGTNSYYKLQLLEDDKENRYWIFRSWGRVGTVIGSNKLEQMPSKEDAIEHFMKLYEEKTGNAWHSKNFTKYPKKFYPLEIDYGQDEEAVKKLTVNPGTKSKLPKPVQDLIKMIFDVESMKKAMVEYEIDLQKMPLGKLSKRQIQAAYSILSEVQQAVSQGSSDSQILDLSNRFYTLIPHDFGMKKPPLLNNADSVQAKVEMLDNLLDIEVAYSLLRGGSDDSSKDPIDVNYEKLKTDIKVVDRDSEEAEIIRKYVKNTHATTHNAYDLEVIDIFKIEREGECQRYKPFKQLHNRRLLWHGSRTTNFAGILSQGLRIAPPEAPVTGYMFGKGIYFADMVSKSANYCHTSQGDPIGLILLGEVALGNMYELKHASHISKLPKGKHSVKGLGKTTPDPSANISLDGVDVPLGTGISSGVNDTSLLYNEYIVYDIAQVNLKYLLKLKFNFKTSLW
Description: as §1, §2, §3, §4
Positive control: 10 mM […] in DMSO, stored at −20° C.
as §5, §6, §7, §8, §9, §10, §11, §12, §13, §14, §15, §16, §17, §18, §19, §20, §21, §22, §23, §24, §25, §26, §27, §28, §29, §30

[3] = biological target: T3, Tankyrase 1 (TNKS1) (Homo sapiens, UniProt O95271); assay: μHTS-TNKS-IWR2 TR-FRET binding assay, TNKS1
T3 construct: His6-TNKS1, MW=28.2 KDa (construct: 1088-1327, I266M)
T3 sequence (O95271 1088-1327): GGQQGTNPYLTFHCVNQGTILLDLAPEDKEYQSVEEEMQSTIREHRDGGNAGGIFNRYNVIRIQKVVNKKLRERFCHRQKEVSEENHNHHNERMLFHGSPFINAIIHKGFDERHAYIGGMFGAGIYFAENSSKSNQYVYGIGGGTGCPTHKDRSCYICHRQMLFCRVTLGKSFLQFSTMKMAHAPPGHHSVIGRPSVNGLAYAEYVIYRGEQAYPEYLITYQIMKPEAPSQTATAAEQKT
Description: as §1, §2, §4, §8, §9, §10, §11, §13, §15, §19, §20, §21, §22, §23, §24, §25, §26, §27, §28

T1 sequence (Q9H2K2 934-1166): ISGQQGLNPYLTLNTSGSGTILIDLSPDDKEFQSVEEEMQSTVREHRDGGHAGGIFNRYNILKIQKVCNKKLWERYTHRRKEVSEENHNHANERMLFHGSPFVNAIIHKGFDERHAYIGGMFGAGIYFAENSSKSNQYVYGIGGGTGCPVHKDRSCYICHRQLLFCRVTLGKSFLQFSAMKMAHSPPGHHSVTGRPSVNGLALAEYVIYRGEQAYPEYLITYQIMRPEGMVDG

Structure (SMILES) | IC50 [1] [nM] | IC50 [2] [µM] | IC50 [3] [nM]
COc1ccc(-c2cn3c(Br)ccc3c(=O)[nH]2)cc1 [Example 1, 6-Bromo-3-(4-methoxy-phenyl)-2H-pyrrolo[1,2-a]pyrazin-1-one] | 145 | > 50 | 54
N/C(=N\O)c1ccc2c(=O)[nH]c(-c3ccc(C(F)(F)F)cc3)cn12 [Example 3, N-Hydroxy-1-oxo-3-(4-trifluoromethyl-phenyl)-1,2-dihydro-pyrrolo[1,2-a]pyrazine-6-carboxamidine] | 1260 | > 50 | 192
NC(=O)c1ccc2c(=O)[nH]c(-c3ccc(C(F)(F)F)cc3)cn12 [Example 4, 1-Oxo-3-(4-trifluoromethyl-phenyl)-1,2-dihydro-pyrrolo[1,2-a]pyrazine-6-carboxylic acid amide] | 1900 | 29.5 | 770
N=C(N)c1ccc2c(=O)[nH]c(-c3ccc(C(F)(F)F)cc3)cn12 [Example 5, 1-Oxo-3-(4-trifluoromethyl-phenyl)-1,2-dihydro-pyrrolo[1,2-a]pyrazine-6-carboxamidine] | 12700 | > 50 | 6790
Cc1ccc2c(=O)[nH]c(N3CCN(c4ccccc4F)CC3)cn12 [Example 9, 3-[4-(2-Fluoro-phenyl)-piperazin-1-yl]-6-methyl-2H-pyrrolo[1,2-a]pyrazin-1-one] | 68 | 2.74 | 68

Next, values leading:

IC50 [1] [nM] | IC50 [2] [µM] | IC50 [3] [nM] | Structure (SMILES)
995 | 31.2 | 232 | N#Cc1ccc2c(=O)[nH]c(-c3ccc(C(F)(F)F)cc3)cn12 [Example 2, 1-Oxo-3-(4-trifluoromethyl-phenyl)-1,2-dihydro-pyrrolo[1,2-a]pyrazine-6-carbonitrile]
1840 | 34.9 | 1110 | O=c1[nH]c(-c2ccc(C(F)(F)F)cc2)cn2c(C3=NCCN3)ccc12 [Example 6, 6-(4,5-Dihydro-1H-imidazol-2-yl)-3-(4-trifluoromethyl-phenyl)-2H-pyrrolo[1,2-a]pyrazin-1-one]
72 | 0.172 | 32 | Cc1ccc2c(=O)[nH]c(-c3ccc(C(F)(F)F)cc3)cn12 [Example 7, 6-Methyl-3-(4-trifluoromethyl-phenyl)-2H-pyrrolo[1,2-a]pyrazin-1-one]
715 | 11.4 | 17 | O=c1[nH]c(-c2ccc(C(F)(F)F)cc2)cn2c(CO)ccc12 [Example 8, 6-Hydroxymethyl-3-(4-trifluoromethyl-phenyl)-2H-pyrrolo[1,2-a]pyrazin-1-one]
158 | 1.25 | 56 | O=c1[nH]c(-c2ccc(C(F)(F)F)cc2)cn2c(Br)ccc12 [Example 10, 6-Bromo-3-(4-trifluoromethyl-phenyl)-2H-pyrrolo[1,2-a]pyrazin-1-one]
